According to US20090247519A1, “AMINO-ETHYL-AMINO-ARYL (AEAA) COMPOUNDS AND THEIR USE” (priority 2006, published 2009):

Target: T1, Human full length PKD1 (Homo sapiens, UniProt Q15139)
T1 construct: Human full length PKD1 at ˜100 μg/mL purchased from Upstate Ltd; purchased Upstate Ltd 14-508
T1 sequence (Q15139 1-912): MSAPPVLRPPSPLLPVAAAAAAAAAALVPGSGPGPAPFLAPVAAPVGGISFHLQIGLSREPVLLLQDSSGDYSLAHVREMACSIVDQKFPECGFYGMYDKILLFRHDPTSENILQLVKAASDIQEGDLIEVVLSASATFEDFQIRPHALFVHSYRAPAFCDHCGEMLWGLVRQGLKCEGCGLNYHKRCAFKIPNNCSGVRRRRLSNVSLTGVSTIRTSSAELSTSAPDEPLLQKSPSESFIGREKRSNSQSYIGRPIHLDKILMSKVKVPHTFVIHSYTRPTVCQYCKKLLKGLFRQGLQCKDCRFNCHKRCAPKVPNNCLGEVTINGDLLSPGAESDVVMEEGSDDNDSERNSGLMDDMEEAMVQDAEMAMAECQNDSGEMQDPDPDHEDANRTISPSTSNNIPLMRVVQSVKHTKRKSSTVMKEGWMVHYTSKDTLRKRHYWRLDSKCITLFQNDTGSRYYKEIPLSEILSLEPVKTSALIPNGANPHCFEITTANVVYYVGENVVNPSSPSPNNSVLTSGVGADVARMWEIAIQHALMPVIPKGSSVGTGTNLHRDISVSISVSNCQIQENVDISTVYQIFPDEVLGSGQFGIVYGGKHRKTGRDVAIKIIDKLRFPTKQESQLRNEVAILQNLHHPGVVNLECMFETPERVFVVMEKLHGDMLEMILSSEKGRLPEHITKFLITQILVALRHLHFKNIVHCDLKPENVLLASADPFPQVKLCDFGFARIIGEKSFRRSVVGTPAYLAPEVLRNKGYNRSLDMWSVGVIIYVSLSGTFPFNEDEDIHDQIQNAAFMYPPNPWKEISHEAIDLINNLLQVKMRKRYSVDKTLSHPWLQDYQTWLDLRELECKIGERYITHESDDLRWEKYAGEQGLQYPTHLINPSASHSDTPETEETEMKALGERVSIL
Experiment: PKD1 (Human Full Length) Enzyme Activity Assay (IMAP fluorescence polarisation)
Type: biochemical
Conditions: 10 μM ATP, 10 point dose-response
Experimental: PKD1 (Human Full Length) Enzyme Activity Assay
Kinase Assay Reaction Buffer: This consisted of 0.22 μM filtered 25 mM HEPES and 2 mM MgCl2 pH 7.5.
Kinase Enzyme Human full length PKD1 at ˜100 μg/mL purchased from Upstate Ltd (Product code 14-508) was obtained from aliquots stored at −70° C. It was prepared with a final concentration of 0.3 μg/mL by diluting 1:300 in Reaction Buffer (30 μL per 9 mL-5 mL per plate with an additional 4 mL dead volume) and vortexing prior to use.
Substrate: Fluorescein labelled glycogen synthase-derived peptide (FI)-KKLNRTLSVA (also known as MAPKAP K2 substrate) was obtained from Molecular Devices (Product code R7127). […]
The fluorescence polarisation of the substrate in each well was recorded using an analyst microplate reader (Molecular Devices) with a single read at Ex485 Em535 (Analyst settings: Z Height 5 mm, G Factor 0.95, Reads/well 1, Integration 100000 μs, Gain Sensitivity 2).
Percentage inhibition was calculated based on activity of the test sample minus the average values in the blank wells relative to the average values measured in control wells minus the average values in the blank wells.
IC50 values were calculated from 10 point dose sigmoid ‘dose-response’ curves using XIfit software (IDBS inc, USA). […]

`CC[C@@H](N)CN(C)c1ccnc(-c2cc(Cl)ccc2O)n1` [XX-276, 2-{4-[((R)-2-Amino-butyl)-methyl-amino]-pyrimidin-2-yl}-4-chloro-phenol] was tested. Which IC50 did it give?
Its IC50 is 0.9 nM.
